The values that follow are results of earlier work, collected in paper PMC2933614, “Quantitative in vitro and in vivo pharmacological profile of CE-178253, a potent and selective cannabinoid type 1 (CB1) Receptor Antagonist” (BMC Pharmacology, 2010).

On the set-up of data set [1]: method as in PMID 12055133. Particulars: 0.5 mg/kg; 2-AG-mediated hyperphagia; cited from earlier work.
The subject of another data set is CB1 receptor. On the set-up: method as in PMID 17327489. Particulars: cited from earlier work.

Turning to `Cc1c(C(=O)NN2CCCCC2)nn(-c2ccc(Cl)cc2Cl)c1-c1ccc(Cl)cc1` [SR141716A], in data set [1], the “Attenuation of FI” value is reported as ~ 50%. For the compound `C[C@H](NC(=O)C(C)(C)Oc1ccc(C(F)(F)F)cn1)[C@@H](Cc1ccc(Cl)cc1)c1cccc(C#N)c1` [taranabant], the “Receptor occupancy required for maximal weight loss efficacy” value in the data set on CB1 receptor is listed as 60-90%.
